According to patent publication US20220226484A1, “THERAPEUTIC PEPTIDES” (COHBAR, INC., priority 2019, published 2022):
Positions of bridges follow the written chain, without caps; N, C: chain ends. Primed or numbered codes have the meaning given here. Chains are numbered I, II in the order given. No end group written: not given here. PEG12′ = not defined here

Assays:
human PC-3 tumor cells = experiment: Mouse PC-3 xenograft model of prostate cancer; assay type: in vivo; conditions: 5 mg/kg daily intraperitoneal
Method: Male BALB/c nude mice, 6-7 weeks of age, 20±2 g were inoculated subcutaneously in the right lower flank with a single volume of 0.1 ml of cell suspension containing about 1×10^7 human PC-3 tumor cells. Animals were weighed and randomized into treatment groups when the mean tumor size was around 130 mm^3. Groups of 10 animals received daily injections of test article (5 mg/kg) by intraperitoneal administration. Tumor size was measured twice per week in 2 dimensions using a calipers and tumor volume calculated by standard methods. The study was concluded on day 21 post initial-dosing (day 0).

[1] = test system: Rat primary cortical neurons; experiment: Neuroprotection against Aβ (1-42) toxicity in cultured neurons; assay type: cell-based; conditions: 24 hours
Method: Rat primary cortical neurons were collected and cultured by methods well known in the art (Singer et al., 1999 and Callizot et al., 2013). The cells were seeded at a density of 25,000 per well in 96-well plates precoated with poly-L-lysine and cultured at 37° C. in an air (95%)-CO2 (5%) incubator. The medium was changed every 2 days. The cortical neurons were treated after 11 days of culture. The A13(1-42) was prepared using the procedure described by Callizot et al., 2013 to ensure monomeric peptide. Compounds and the positive control, BDNF (50 ng/ml), were dissolved in culture medium and then pre-incubated with primary cortical neurons for 1 hour before addition of A13(1-42) (20 μM). After 24 hours of treatment, the cell culture supernatant was removed and the cortical neurons were fixed by a cold solution of ethanol (95%) and acetic acid (5%) for 5 min at −20° C. After permeabilization with 0.1% of saponin, cells were incubated for 2 hours with mouse monoclonal antibody anti-microtubule-associated-protein 2 (MAP-2) at a dilution of 1/400 in PBS containing 1% fetal calf serum and 0.1% of saponin to stain cell bodies and neurites.
This antibody was detected with Alexa Fluor 488 goat anti-mouse IgG at the dilution 1/400 in PBS containing 1% FCS, 0.1% saponin, for 1 hour at room temperature. For each condition, images were obtained using ImageXpress (Molecular Devices) with 20× magnification. The total number of cells and extent of neurite network was determined using Custom Module Editor (Molecular Devices).

human lung fibroblasts = experiment: Fibroblast-to-myofibroblast transition assay, alpha smooth muscle actin expression; assay type: cell-based; conditions: 1.25 ng/ml TGF-β1, 72 hours
Source text: The effect of the peptides on fibrosis can be assessed in vitro using a fibroblast-to-myofibroblast transition (FMT) assay and monitoring alpha smooth muscle actin ([…]SMA) produced by cultured cells such as healthy primary human lung fibroblast cells. Assay performed by Charles River Discovery Research Services UK Limited (Essex, UK). Transforming growth factor beta-1 (TGF-β1) stimulated alpha smooth muscle actin (αSMA) expression in human lung fibroblasts derived from three healthy donors was used to assess anti-fibrotic activity. Peptides were prepared as 10 mM stock in DMSO and tested in eight (8)-step concentration response curves using 0.5 Log M dilution steps with 10 μM as highest concentration (0.1% DMSO final). Transforming Growth Factor beta (TGF-β1) was used as a potent inducer of FMT as measured by increased αSMA expression. Isolated lung fibroblasts were seeded in 96-well or 384-well PureCol coated plates. Five days post-seeding, medium was refreshed, and peptides, reference compounds, and controls are added to the cells. After one hour, 1.25 ng/ml TGF-β1 was added to induce FMT. Expression of αSMA was measured 72 hours later by immunostaining, assessed by high content imaging on an IN Cell Analyzer 2200 (GE Healthcare) and quantified using an in-house developed algorithm with the IN Cell developer software (GE Healthcare). The output of the algorithm represents the staining intensity multiplied by the stained area (DxA levels). Co-staining of cell nuclei with DAPI was performed to quantify cell number, a measure of potential toxicity. The αSMA expression levels observed using 0.1% DMSO (negative control) were used to calculate percentage inhibition of αSMA by each peptide.

[2] = test system: RENCA cells (renal adenocarcinoma cell line); experiment: Tumor growth in RENCA syngeneic mouse model; assay type: in vivo; conditions: 10 mg/kg daily intraperitoneal, female BALB/c mice, 10 per group
Method: The effect of the peptides on tumor growth can be assessed by monitoring tumor volume in syngeneic mouse cancer models such as RENCA, a mouse tumor model using a renal adenocarcinoma cell line. RENCA cells were grown in culture. On Day 0, 1.0×10^6 cells in 100 μl PBS were implanted into the mammary fat pad of female BALB/c mice. […] Test peptides were administered daily at a dose of 10 mg/kg by intraperitoneal administration. Primary tumor volumes were determined by caliper measurements twice a week. The growth rate of each tumor was calculated as the percent of the mean tumor growth of tumors observed in the control vehicle-treated group, as determined on Day 20 of the study.

[3] = test system: bleomycin-induced lung fibrosis in male C57BL/6 mice; experiment: Therapeutic mouse model of idiopathic pulmonary fibrosis (bleomycin); assay type: in vivo; conditions: peptide 5 mg/kg/day intraperitoneal, nintedanib 60 mg/kg/day PO
Source text: The effect of the peptides on the progression of established lung fibrosis can be assessed by monitoring lung fibrosis, lung weight, inflammatory cells in bronchoalveolar lavage fluid (BALF), soluble collagen in BALF, and body weight change in a therapeutic mouse model of idiopathic pulmonary fibrosis. Lung fibrosis was induced in lungs of male C57BL/6 mice between the ages of 6 to 8 weeks by nasophayngeal administration of bleomycin (1.5 U/kg using bleomycin clinical formulation diluted in PBS). A control group of animals were administered saline by the nasopharyngeal route (no-bleomycin control group). After one week, bleomycin-treated animals were randomized to treatment groups (N=10 per group) by body weight and treated daily with vehicle control, nintedanib positive control (60 mg/kg/day PO) or peptide (5 mg/kg/day by intraperitoneal injection). After 14 days of treatment (Day 21), lungs were removed and weighed. The post-caval lobe was separated and snap frozen. The lungs were flushed with Hanks Buffer and bronchoalveolar lavage fluid (BALF) was harvested from each animal. Total BALF leukocyte were counted. Slides were prepared from the remaining BALF leukocytes, fixed and stained with May Geimsa stain and the differential counts were recorded manually. BALF was evaluated for soluble collagen using a Sircol assay. Lungs were fixed in 10% neutral buffered formalin (NBF) for histopathological analysis. Fibrosis was assessed by histopathological analysis of H&E stained mouse lungs using an Ashcroft scoring system.

[4] = test system: DSS-induced colitis in female C57BL/6NTac mice; experiment: DSS-induced colitis mouse model of inflammatory bowel disease; assay type: in vivo; conditions: 3% DSS 8 days; peptides 10 mg/kg/day intraperitoneal; CsA 80 mg/kg/day oral; AUC over 8 days
Method: The effect of the peptides on inflammatory disease can be assessed by monitoring fecal blood, stool consistency, and body weight loss in a DSS-induced colitis mouse model. Colitis was induced in female C57BL/6NTac mice (9-11 weeks old) by continuous ad libitum oral administration of dextran sodium sulfate (DSS) 3% in sterile drinking water for 8 days. Control (No DSS) mice received sterile water instead of DSS solution. Peptides were administered intraperitoneally once daily at 10 mg/kg/day for 8 days in combination with oral DSS. […] Daily assessments included body weight loss score, fecal blood score, stool consistency score, and composite disease activity index (DAI) score, based on the first three parameters combined. Scores recorded on each day over 8 days were used to calculate area under the curve (AUC) values for each endpoint in individual animals.

In the case of RVIRMCLGVGLLGDLAG [SEQ ID NO: 3], the “Mean Tumor Volume” value (human PC-3 tumor cells; Time 0 Days, N = 10) is reported as 131 mm^3, the “Mean Tumor Volume” value (human PC-3 tumor cells; Time 4 Days) is reported as 136 mm^3 and the “Mean Tumor Volume” value (human PC-3 tumor cells; Time 7 Days) is reported as 203 mm^3. The “Mean Tumor Volume” value (human PC-3 tumor cells; Time 11 Days) was 270 mm^3, the “Mean Tumor Volume” value (human PC-3 tumor cells; Time 14 Days) was 400 mm^3 and the “Mean Tumor Volume” value (human PC-3 tumor cells; Time 18 Days) was 596 mm^3. The “Mean Tumor Volume” value (human PC-3 tumor cells; Time 22 Days) was 806 mm^3, the “Percent Protection of Neuronal Network” value ([1]; Aβ (1-42) 20 μM + peptide 100 nM) was 80% and the “Percent Protection of Neuronal Network” value ([1]; Aβ (1-42) 20 μM + peptide 10 uM) was 81%.
“RVIRMCLGVGLLGDLAGK{PEG12} (chain 1 RVIRMCLGVGLLGDLAGK(PEG12′); chain 2 RVIRMCLGVGLLGDLAGK(PEG12′); disulfide I:6-II:6) [SEQ ID NO: 28]” was tested, and the “Mean Percent Inhibition of alpha-SMA Expression” value (“Mean Percent Inhibition” for short) (human lung fibroblasts; peptide 0.00316 μM) was 6.25%, the “Mean Percent Inhibition” value (human lung fibroblasts; peptide 0.01 μM) was 1.25% and the “Mean Percent Inhibition” value (human lung fibroblasts; peptide 0.0316 μM) was −5.63%. The “Mean Percent Inhibition” value (human lung fibroblasts; peptide 0.1 μM) was −5.63%, the “Mean Percent Inhibition” value (human lung fibroblasts; peptide 0.316 μM) was 4.06% and the “Mean Percent Inhibition” value (human lung fibroblasts; peptide 1 μM) was 28.1%. The “Mean Percent Inhibition” value (human lung fibroblasts; peptide 3.16 μM) was 81.6%, the “Mean Percent Inhibition” value (human lung fibroblasts; peptide 10 μM) was 88.1% and the “Mean (SEM) Percent of Control Group Tumor Growth at Day 20” value [2] was 57.3 (14.4) Percent. For the same substance, the “Mean (SEM) Leukocyte Count in BALF (Percent of Bleomycin Control)” value ([3]; Day 21, 14 days of treatment) was 72.2 (5.96) Percent, the “Mean (SEM) Lung Weight (Percent of Bleomycin Control)” value ([3]; Day 21, 14 days of treatment) was 73.8 (3.13) Percent and the “Mean (SEM) Percent Body Weight Change from Baseline” value ([3]; Day 21, 14 days of treatment) was 2.71 (1.48) Percent. The “Mean (SEM) Collagen Content in BALF (Percent of Bleomycin Control)” value ([3]; Sircol assay, Day 21) was 49.6 (6.48) Percent, the “Mean (SEM) Ashcroft Score (Percent of Bleomycin Control)” value ([3]; histopathology, Day 21) was 80.73 (7.24) Percent and the “Mean (SEM) Body Weight Loss Score AUC” value [4] was 1.70 (0.63). For the same substance, the “Mean (SEM) Composite Disease Activity Index (DAI) Score AUC” value [4] was 16.6 (1.25), the “Mean (SEM) Fecal Blood Score AUC” value [4] was 10.3 (0.82) and the “Mean (SEM) Stool Consistency Score AUC” value [4] was 4.60 (0.74).
